According to US20040198981A1, “Tricyclic dihydroquinoline derivatives,method for preparing same and pharmaceutical compositions containing same” (priority 2001, published 2004):

System: murine leukaemia, L1210
Test: In vitro cytotoxicity, Microculture Tetrazolium Assay
Assay type: cell-based
Conditions: Mus musculus, 48 h; L1210 cells, incubated for 2 days; read-out: IC50 (concentration of cytotoxic agent which inhibits proliferation of the treated cells by 50%)
Method: Three cell lines were used:
1 murine leukaemia, L1210,
1 human non-small-cell lung carcinoma, A549,
1 human colon carcinoma, HT29.
The cells are cultured in RPMI 1640 complete culture medium containing 10% foetal calf serum, 2 mM glutamine, 50 units/ml of penicillin, 50 μg/ml of streptomycin and 10 mM Hepes, pH=7.4. The cells are distributed on microplates and are exposed to the cytotoxic compounds. The cells are then incubated for 2 days (L1210) or 4 days (A549, HT29). The number of viable cells is then quantified by a colorimetric assay, the Microculture Tetrazolium Assay (Cancer Res. 1987, 47, 939-942).

COc1cc(C2C3=C(COC3=S)N(Cc3ccccc3)c3cc4c(cc32)OCO4)cc(OC)c1OC (stereo not shown) [Example 5, 4-Benzyl-6,7-methylenedioxy-9-(3,4,5-trimethoxyphenyl)-4,9-dihydrofuro[3,4-b]quinoline-1(3H)-thione]
IC50: 190 nM
